Data: patent publication EP0623024B1, “PHARMACEUTICAL BACTERIOCIN COMPOSITIONS AND THEIR USE FOR TREATING GASTROINTESTINAL DISORDERS” (APPLIED MICROBIOLOGY, INC., priority 1992, dated 1993)
Values joined by “and” are separate entries in the source; they are usually repeats but may differ in a detail not shown here. Identical values can stand only once. Marks after values point to notes of the source that are not given here. Ends that are not written are not given here.

Tests used:
[1] = system: Campylobacter jejuni ATCC29428; assay: germicidal suspension assay; conditions: nisin 0 or 100 µg/ml, 37°C
[2] = system: Helicobacter pylori; assay: germicidal suspension assay; conditions: nisin 0 or 100 µg/ml, 37°C
[3] = system: Helicobacter pylori; assay: germicidal suspension assay; format: cell-based; conditions: 37°C
[4] = system: E. coli strain ATCC8739; assay: nisin-citrate agar assay (growth inhibition on nutrient agar); format: cell-based
From the text: However, nisin in the presence of citrate is active against gram negative bacteria. […] This nisin-citrate agar assay has much more general applicability. The assay provides a method for screening potential agents other than citrate in combination with nisin for their potential properties as enhancers of nisin's inherent bactericidal activity. Examples of other organic acids in combination with nisin would include acetate, propionate, lactate, succinate, fumarate, malonate, adipate, sorbate, phosphate and ascorbate.
The nisin-citrate agar assay is performed as follows. E. coli is resuspended to an optical density of 1.0 at A600. A 100 µl sample of the bacterial suspension is spread uniformly on Trypticase Soy nutrient agar (TSA) supplemented with various concentrations of citrate (eg. 0.1%, 0.3%, 1.0%, 3.0%) and incubated for 1 hour at 37°C. A nisin stock solution and serial dilutions thereof in 0.1% bovine serum albumin (BSA), are prepared and 5 µl are taken from each and deposited onto the growing bacterial lawn. The TSA plates are then incubated for 24 hours at 37°C. After 24 hours at 37°C, E. coli grown on TSA supplemented with citrate form a confluent lawn. […] The effectiveness of nisin against the gram negative bacteria can be assessed from determining the minimum amount of nisin required to produce a clear zone of growth inhibition. As the concentration of citrate in the nutrient agar is increased, less nisin is required to inhibit the growth of E. coli, as is illustrated by the data shown in Table 6.

[5] = system: Escherichia coli; assay: germicidal suspension assay of chelator-enhanced nisin in acid vehicles; format: cell-based; conditions: for % survival at 1 min: 37°C
Method: The rapid activities of various chelator-enhanced nisin formulations were evaluated in acid vehicles in a germicidal suspension assay.
E. coli cells from an overnight Trypticase soy nutrient agar (TSA) were resuspended to a density measured as an absorbance of 1.0 at 600 nm in sterile ddH2O. The reaction of the cells with each of the bactericidal test formulations analyzed was started by addition of 30 µl of cells to 970 µl of test formulation. The reaction mixture was incubated at 37°C for at least 1 minute and then centrifuged in a microfuge for 1 minute. The cell pellet was washed by resuspension in 1 ml of neutralization buffer. (The neutralization buffer: 50 mM Tris-HCl, pH 7.0, 5 mM MgSO4, 20 mM CaC12, 0.1 M NaCl and 0.1% gelatin was prepared by first making Tris buffer and adjusting the pH. The salts and gelatin were then added and the solution stirred with heat until the solution was clear. The solution was then autoclaved for 20 min. The neutralization buffer was used without dilution.) The cells were centrifuged in a microfuge for 1 minute and resuspended in 1 ml of neutralization buffer. The viable count was determined by spreading 100 µl of bacterial suspension and serial dilutions thereof in neutralization buffer on nutrient agar and scoring surviving colonies after 24 h at 37°C. Percent survival relative to untreated controls was calculated from the scored values.
In Table 1 and subsequent Tables 2, 4 and 8-13 values preceded by "<" represent the percent survival figures, based on the initial concentration of viable bacteria (expressed as colony forming units (cfu) /ml) in the assayed bacterial suspension and the aliquot volume of said suspension taken for assay, corresponding to the detection of no surviving colonies.

[6] = system: Campylobacter jejuni ATCC29428; assay: germicidal suspension assay; format: cell-based; conditions: for % survival at 5 min: pH 5.0, nisin 100 µg/ml, 37°C

O=C(O)CC(O)(CC(=O)O)C(=O)O [Citrate]
% survival at 5 min ([1]; 0.3 % w/v citrate pH 5.0): <6.4x10^-3%
% survival at 5 min ([1]; 1.0 % w/v citrate pH 5.0): <6.4x10^-3%
% survival at 5 min ([2]; strain ATCC 43504, 0.1% citrate adjusted to pH 5.0): 68.5^d %
% survival at 5 min ([2]; strain ATCC 43504, 0.3% citrate adjusted to pH 5.0): 100^e %
% survival at 5 min ([2]; strain ATCC 43579, 0.1% citrate adjusted to pH 2.5): <5.0x10^-4%
% survival at 5 min ([2]; strain ATCC 43579, 0.1% citrate adjusted to pH 3.0): 1.1x10^-3%
% survival at 5 min ([2]; strain ATCC 43579, 0.1% citrate adjusted to pH 5.0): 97.2^b %

nisin (ITSISLCTPGCKTGALMGCNMKTATCHCSIHVSK; also: lantibiotic nisin A: thioether rings and dehydrated residues not placed; UniProt P13068 24-57, looked up) [lanthionine-containing bacteriocin]
% survival at 5 min ([3]; strain ATCC 43504, EDTA 0, nisin 100 µg/ml, pH 5.0, incubated in presence of 20 mM acetate): 7.03^e %
% survival at 5 min ([3]; strain ATCC 43504, citrate 0, nisin 100 µg/ml, 20 mM acetate, pH 5.0, two experiments (initial count 2.7 x 10^5 and 3.7 x 10^4 cfu/ml)): 0.69^d % and 4.86^e %
% survival at 5 min ([3]; strain ATCC 43504, pH 5.0, citrate 0, nisin 100 µg/ml): 0.043%
% survival at 5 min ([3]; strain ATCC 43504, pH 7.0, citrate 0, nisin 100 µg/ml): 2.08%
% survival at 5 min ([3]; strain ATCC 43526, pH 7.0, EDTA 0, nisin 100 µg/ml): 5.88%
% survival at 5 min ([3]; strain ATCC 43579, citrate 0, nisin 100 µg/ml, 20 mM acetate, pH 5.0, average of 5 experiments): 0.30^c %
% survival at 5 min ([3]; strain ATCC 43579, citrate 0, nisin 100 µg/ml, 20 mM acetate, pH 5.0, single experiment): 8.6x10^-3 ^e %
% survival at 5 min ([3]; strain ATCC 43579, nisin 10 µg/ml, without or with 0.1% citrate pH 5.0): 1.41%
% survival at 5 min ([3]; strain ATCC 43579, nisin 30 µg/ml, without or with 0.1% citrate pH 5.0): 0.39%
% survival at 5 min ([3]; strain ATCC 43579, nisin 100 µg/ml, without or with 0.1% citrate pH 5.0): 0.085%
% survival at 5 min ([3]; strain ATCC 43579, nisin 300 µg/ml, without or with 0.1% citrate pH 5.0): 0.0056%
% survival at 5 min ([3]; strain ATCC 43579, pH 5.0, EDTA 0, nisin 100 µg/ml): 4.7%
% survival at 5 min ([3]; strain ATCC 43579, pH 5.0, citrate 0, nisin 100 µg/ml): 9.62%
% survival at 5 min ([3]; strain ATCC 43579, pH 7.0, citrate 0, nisin 100 µg/ml): 0.78%
Nisin NIC (nominal inhibitory concentration of nisin minimally required to prevent growth) ([4]; Trypticase Soy Agar supplemented with 0.1% citrate): 370 µg/mL
Nisin NIC (nominal inhibitory concentration of nisin minimally required to prevent growth) ([4]; Trypticase Soy Agar supplemented with 0.3% citrate): 123 µg/mL
Nisin NIC (nominal inhibitory concentration of nisin minimally required to prevent growth) ([4]; Trypticase Soy Agar supplemented with 1.0% citrate): 13.7 µg/mL
Nisin NIC (nominal inhibitory concentration of nisin minimally required to prevent growth) ([4]; Trypticase Soy Agar supplemented with 3.0% citrate): 0.06 µg/mL
Nisin NIC (nominal inhibitory concentration of nisin minimally required to prevent growth) ([4]; Trypticase Soy Agar with 0% citrate): 3,333 µg/ml
% survival at 1 min ([5]; 0.1 % w/v acetate pH 3.5, nisin 100 µg/ml and/or EDTA 1.0 mM, or acetate alone): 9.6%
% survival at 1 min ([5]; 0.1 % w/v lactate pH 3.5, nisin 100 µg/ml and/or EDTA 1.0 mM, or lactate alone): 4.4%
% survival at 1 min ([5]; 0.1 % w/v succinate pH 3.5, nisin 100 µg/ml and/or EDTA 1.0 mM, or succinate alone): 18.3%
% survival at 1 min ([5]; 0.3 % w/v acetate pH 3.5, nisin 100 µg/ml and/or EDTA 1.0 mM, or acetate alone): 70%
% survival at 1 min ([5]; 0.3 % w/v lactate pH 3.5, nisin 100 µg/ml and/or EDTA 1.0 mM, or lactate alone): 0.24%
% survival at 1 min ([5]; 0.3 % w/v succinate pH 3.5, nisin 100 µg/ml and/or EDTA 1.0 mM, or succinate alone): 66.6%
% survival at 1 min ([5]; 1.0 % w/v acetate pH 3.5, nisin 100 µg/ml and/or EDTA 1.0 mM, or acetate alone): 100%
% survival at 1 min ([5]; 1.0 % w/v lactate pH 3.5, nisin 100 µg/ml and/or EDTA 1.0 mM, or lactate alone): 17.8%
% survival at 1 min ([5]; 1.0 % w/v succinate pH 3.5, nisin 100 µg/ml and/or EDTA 1.0 mM, or succinate alone): 83.4%
% survival at 1 min ([5]; 3.0 % w/v acetate pH 3.5, nisin 100 µg/ml and/or EDTA 1.0 mM, or acetate alone): 100%
% survival at 1 min ([5]; 3.0 % w/v lactate pH 3.5, nisin 100 µg/ml and/or EDTA 1.0 mM, or lactate alone): 26.7%
% survival at 1 min ([5]; 3.0 % w/v succinate pH 3.5, nisin 100 µg/ml and/or EDTA 1.0 mM, or succinate alone): 28.4%
survival of E. coli on exposure to the agent by itself ([5]; each agent by itself): unaffected
% survival at 1 min ([5]; pH 2.0, 20 mM Na acetate buffer, nisin 100 µg/ml and/or EDTA 1.0 mM): 0.28%
% survival at 1 min ([5]; pH 2.5, 20 mM Na acetate buffer, nisin 100 µg/ml and/or EDTA 1.0 mM): 3.37%
% survival at 1 min ([5]; pH 3.0, 20 mM Na acetate buffer, nisin 100 µg/ml and/or EDTA 1.0 mM): 4.43%
% survival at 1 min ([5]; pH 3.5, 20 mM Na acetate buffer, nisin 100 µg/ml and/or EDTA 1.0 mM): 100%
% survival at 1 min ([5]; pH 4.0, 20 mM Na acetate buffer, nisin 100 µg/ml and/or EDTA 1.0 mM): 100%
% survival at 5 min ([6]; EDTA 0): <5.0x10^-4%
% survival at 5 min ([6]; citrate 0): <6.4x10^-3%
effectiveness towards C. jejuni ([6]; nisin by itself): extremely effective
